Experimental findings from patent US12486280B2, “CDK inhibitors and uses thereof” (California Institute of Technology, priority 2018, dated 2025) are described below.

Assay [1] relates to drug-sensitive cell lines of Table 2 (EFM-19, MDA-MB-453, T-47D, ZR-75-1, NCI-H441, OVTOKO, NCI-H1838). The assay is described as follows: Cell Line Growth Retardation Assay, sensitive cohort. To be noted: for pIC50: geometric mean over sensitive cohort, 6 days growth, read-out: AvgSensIC50; for Ther Window: average IC50 drug-resistant group divided by average IC50 drug-sensitive group. It is filed as cell-based, human. How it is done:
(§1) Cells were seeded at densities of 1,000-5,000 cells per well in 48-well tissue culture plates. After a 24 hours rest period, cells were treated with compound at 10 μM, 2 μM, 0.4 μM, 0.08 μM, 0.016 μM, and 0.0032 μM. A group of cells were treated with the vehicle in which the compound was prepared and served as a control. The cells were grown in the presence of compounds for 6 days and were counted on day 0 and day 6. A11 cell counting was performed using a Synentec Cellavista plate imager. […] Growth inhibition was calculated as a ratio of cell population doublings in the presence of compound versus the absence of compound. […] IC50 values for each compound (see Table 3; reported in μM) were calculated by fitting curves to data points from each dose-response assay using the Proc NLIN function in SAS for Windows version 9.2 (SAS Institute, Inc.).
(§2) These sensitive and resistant cohorts were interrogated for response to each compound, and IC50s were calculated for each cell line using the same technique described above. Average IC50s for the sensitive and resistant cohorts were calculated as geometric means of the group. “Therapeutic Window” for each compound was calculated by dividing the average IC50 for the drug-resistant group by the average IC50 for the drug-sensitive group.

In assay [2] the target is CDK6 (Homo sapiens (Human), UniProt Q00534). The assay is described as follows: Cdk4 and 6 Enzymatic Inhibition Assay (radiometric 33PanQinase, Ki determination). The format is biochemical. The protocol: (§3) 10 distinct concentrations were prepared, with a dilution endpoint of 6×10^−9 M in 100% DMSO. 100% DMSO was used as a control. 10 μL from each of the serial dilutions were aliquoted into separate wells of a 96-well plate and 90 μL of water were added to each of those wells. The plate was shaken thoroughly, and 5 μL from each of the plate's wells were transferred into wells of the assay plate. The final volume of wells in the assay plate was 50 μL. A11 compounds were tested at 10 assay concentrations in the range from 2×10^−6 M to 6×10^−11 M. The final DMSO concentration in the wells of the assay plate was 1% in all cases.
Sequence of CDK6 (Q00534 whole entry): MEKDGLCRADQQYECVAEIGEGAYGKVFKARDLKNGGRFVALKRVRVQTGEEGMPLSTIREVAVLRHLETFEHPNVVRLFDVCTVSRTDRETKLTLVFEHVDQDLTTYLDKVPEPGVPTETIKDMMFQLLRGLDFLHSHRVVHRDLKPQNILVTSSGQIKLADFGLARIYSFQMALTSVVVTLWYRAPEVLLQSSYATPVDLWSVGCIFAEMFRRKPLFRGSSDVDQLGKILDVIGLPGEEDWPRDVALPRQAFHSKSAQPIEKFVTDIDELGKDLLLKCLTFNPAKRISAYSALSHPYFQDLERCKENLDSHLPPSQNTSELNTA
Sequence of CDK6 (P24385 whole entry partner): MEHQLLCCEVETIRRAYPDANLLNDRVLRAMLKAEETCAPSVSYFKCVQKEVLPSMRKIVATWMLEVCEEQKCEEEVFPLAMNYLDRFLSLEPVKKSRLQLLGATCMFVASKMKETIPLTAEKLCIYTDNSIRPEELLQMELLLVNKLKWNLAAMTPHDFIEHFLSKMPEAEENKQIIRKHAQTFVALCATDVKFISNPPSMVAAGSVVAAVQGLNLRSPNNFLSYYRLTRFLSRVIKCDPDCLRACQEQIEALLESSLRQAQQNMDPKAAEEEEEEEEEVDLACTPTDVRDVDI
(§4) A radiometric protein kinase assay (33PanQinase® Activity Assay) was used for measuring the kinase activity of six protein kinases. A11 kinase assays were performed in 96-well FlashPlates™ from PerkinElmer (Boston, MA, USA). The assay for all protein kinases contained 70 mM HEPES-NaOH pH 7.5, 3 mM MgCl2, 3 mM MnCl2, 3 μM Na-orthovanadate, 1.2 mM DTT, 50 μg/mL PEG20000, ATP [γ-33P]-ATP (approx. 9×1005 cpm per well), protein kinase and substrate. The reaction cocktails were incubated at 30° C. for 60 minutes. The reaction was stopped with 50 μL of 2% (v/v) H3PO4, and plates were aspirated and washed two times with 200 μL 0.9% (w/v) NaCl. Incorporation of ^33Pi was determined with a microplate scintillation counter (Microbeta, Wallac).

Assay [3] addresses CDK4 (Homo sapiens (Human), UniProt P11802). Described as above. It is filed as biochemical. How it is done: as §3, §4
In assay [4] the test system is drug-resistant cell lines of Table 2 (NCI-H1437, OV207, HCC1806, NCI-H2172). The assay is described as follows: Cell Line Growth Retardation Assay, resistant cohort. It is filed as cell-based, human. Conditions: geometric mean over resistant cohort, 6 days growth, read-out: AvgResIC50. How it is done: as §1, §2

pIC50, pKi: −log10 of the molar value. Where two headings read alike, the source gives them in different places.

Sequence of CDK4 (P11802 whole entry): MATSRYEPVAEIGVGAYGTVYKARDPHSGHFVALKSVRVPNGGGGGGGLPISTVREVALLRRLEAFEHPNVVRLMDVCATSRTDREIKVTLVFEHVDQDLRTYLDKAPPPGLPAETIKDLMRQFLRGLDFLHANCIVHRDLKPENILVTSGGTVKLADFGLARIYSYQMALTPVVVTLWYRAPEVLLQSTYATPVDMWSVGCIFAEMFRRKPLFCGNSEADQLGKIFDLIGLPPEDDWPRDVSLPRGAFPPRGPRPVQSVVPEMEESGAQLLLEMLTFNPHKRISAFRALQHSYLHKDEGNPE
Sequence of CDK4 (P24385 whole entry partner): as the sequence (P24385 whole entry partner) above

Regarding `Cc1nc2c(F)cc(-c3nc(Nc4ccc(CN5CCO[C@@](C)(C[C@@H](C)O)C5)cn4)ncc3F)cc2n1C(C)C` (single isomer, unassigned) [Compound A52], the pIC50 in assay [1] (Homo sapiens, […]) was 6.46; in assay [4] (Homo sapiens, […]), 6.00. Also, the “Ther Window” value in assay [1] stood at 2.82. Moreover, the pKi in assay [2] was 7.81; in assay [3], 8.45.

For the compound `Cc1nc2c(F)cc(-c3nc(Nc4ccc(CN5CCO[C@@](C)(C[C@H](C)O)C5)cn4)ncc3F)cc2n1C(C)C` (single isomer, unassigned) [Compound A53], the pIC50 in assay [1] (Homo sapiens, […]) is 6.68; in assay [4] (Homo sapiens, […]), 6.00. In assay [1], the “Ther Window” value amounted to 4.85. The pKi in assay [2] was 7.92; in assay [3], 8.60.

As to `CCN1CCN(Cc2ccc(Nc3ncc(F)c(-c4cc(F)c5nc(C)n(C(C)C)c5c4)n3)nc2)CC1` [Abemaciclib FB, Abemaciclib, reference compound], in assay [1], the “Ther Window” value amounted to 6.73 and the pIC50 is 7.00. Besides, the pIC50 in assay [4] is 6.17.

As for `Cc1nc2c(F)cc(-c3nc(Nc4ccc(CN5CCOC(C)(CCN(C)C)C5)cn4)ncc3F)cc2n1C(C)C` (centres unmarked) [Compound A4], the pIC50 in assay [1] (Homo sapiens, […]) is 6.80; in assay [4] (Homo sapiens, […]), 6.02. Moreover, in assay [1], the “Ther Window” value turned out to be 5.80. Moreover, the pKi in assay [2] was 8.29; in assay [3], 8.94.

In the case of `Cc1nc2c(F)cc(-c3nc(Nc4ccc(CN5CCOC(C)(CC(C)N(C)C)C5)cn4)ncc3F)cc2n1C(C)C` (centres unmarked) [Compound A24], the “Ther Window” value in assay [1] is recorded as 3.02. Also, the pIC50 is 7.40 in assay [1] and 6.89 in assay [4]. The negative logarithm of the Ki (pKi) was 9.80 in assay [2] and 10.40 in assay [3].

Take `Cc1nc2c(F)cc(-c3nc(Nc4ccc(CN5CCOC(C)(CC(C)N(C)C)C5)cn4)ncc3F)cc2n1C(C)C` (centres unmarked) [Compound A25]: the “Ther Window” value in assay [1] is on record as 6.52. Also, the values for the pIC50 in assay [1] and in assay [4] were 6.92 and 6.10, respectively. In addition, the figures for the pKi in assay [2] and in assay [3] were 8.46 and 9.10, respectively.

On to `Cc1nc2c(F)cc(-c3nc(Nc4ccc(CN5CCO[C@@]6(CCNC6)C5)cn4)ncc3F)cc2n1C(C)C` [Compound A34, (R)—N-(5-((6-oxa-2,9-diazaspiro[4.5]decan-9-yl)methyl)pyridin-2-yl)-5-fluoro-4-(4-fluoro-1-isopropyl-2-methyl-1H-benzo[d]imidazol-6-yl)pyrimidin-2-amine], for which the pIC50 in assay [1] (Homo sapiens, […]) was 6.70; in assay [4] (Homo sapiens, […]) it was 6.00. Further, the “Ther Window” value in assay [1] is on record as 5.02.

With `Cc1nc2c(F)cc(-c3nc(Nc4ccc(CN5CCO[C@]6(CCNC6)C5)cn4)ncc3F)cc2n1C(C)C` [Compound A35], the pIC50 in assay [1] (Homo sapiens, […]) was 6.72; in assay [4] (Homo sapiens, […]), 6.00. Besides, the “Ther Window” value in assay [1] was determined as 5.36.

As to `Cc1nc2c(F)cc(-c3nc(Nc4ccc(CN5CCOC6(CCOC6)C5)cn4)ncc3F)cc2n1C(C)C` (centres unmarked) [Compound A40], the pIC50 is 6.35 in assay [1] (Homo sapiens, […]) and 6.01 in assay [4] (Homo sapiens, […]). In assay [1], the “Ther Window” value turned out to be 2.18. Further, the pKi in assay [2] was 8.10; in assay [3], 8.64.

Take `Cc1nc2c(F)cc(-c3nc(Nc4ccc(CN5CCO[C@@]6(CCN(C(=O)OC(C)(C)C)C6)C5)cn4)ncc3F)cc2n1C(C)C` [Compound A41, tert-butyl (S)-9-((6-((5-fluoro-4-(4-fluoro-1-isopropyl-2-methyl-1H-benzo[d]imidazol-6-yl)pyrimidin-2-yl)amino)pyridin-3-yl)methyl)-6-oxa-2,9-diazaspiro[4.5]decane-2-carboxylate]: the negative logarithm of the Ki (pKi) is 7.13 in assay [2] and 7.95 in assay [3].

For the compound `Cc1nc2c(F)cc(-c3nc(Nc4ccc(CN5CCO[C@]6(CCN(C(=O)OC(C)(C)C)C6)C5)cn4)ncc3F)cc2n1C(C)C` [Compound A42], the results for the pKi in assay [2] and in assay [3] were 7.46 and 8.19, respectively.

Regarding `C=CC[C@@]1(C)CN(Cc2ccc(Nc3ncc(F)c(-c4cc(F)c5nc(C)n(C(C)C)c5c4)n3)nc2)CCO1` [Compound A45, (S)—N-(5-((2-allyl-2-methylmorpholino)methyl)pyridin-2-yl)-5-fluoro-4-(4-fluoro-1-isopropyl-2-methyl-1H-benzo[d]imidazol-6-yl)pyrimidin-2-amine], the pIC50 was 6.11 in assay [1] (Homo sapiens, […]) and 6.00 in assay [4] (Homo sapiens, […]). Also, in assay [1], the “Ther Window” value turned out to be 1.29. Besides, the pKi in assay [2] was 8.84; in assay [3] it was 8.46.

Turning to `CCCC1(C)CN(Cc2ccc(Nc3ncc(F)c(-c4cc(F)c5nc(C)n(C(C)C)c5c4)n3)nc2)CCO1` (centres unmarked) [Compound A46], the pIC50 was 6.10 in assay [1] (Homo sapiens, […]) and 6.00 in assay [4] (Homo sapiens, […]). The “Ther Window” value in assay [1] is on record as 1.26. Also, the results for the negative-log Ki (pKi) in assay [2] and in assay [3] were 8.71 and 8.29, respectively.

For `Cc1nc2c(F)cc(-c3nc(Nc4ccc(CN5CCOC(C)(C)C5)cn4)ncc3F)cc2n1C(C)C` [Compound A48], the pIC50 is 6.19 in assay [1] (Homo sapiens, […]) and 6.00 in assay [4] (Homo sapiens, […]). Also, the “Ther Window” value in assay [1] amounted to 1.56. In addition, the results for the pKi in assay [2] and in assay [3] were 8.97 and 8.75, respectively.

For `Cc1nc2c(F)cc(-c3nc(Nc4ccc(CN5CCOC(C)(CO)C5)cn4)ncc3F)cc2n1C(C)C` (centres unmarked) [Compound A51], the pIC50 is 6.21 in assay [1] (Homo sapiens, […]) and 6.00 in assay [4] (Homo sapiens, […]). In addition, the “Ther Window” value in assay [1] came to 1.62. Also, the figures for the pKi in assay [2] and in assay [3] were 7.42 and 8.10, respectively.

For `CCOCC[C@]1(C)CN(Cc2ccc(Nc3ncc(F)c(-c4cc(F)c5nc(C)n(C(C)C)c5c4)n3)nc2)CCO1` [Compound A54], the pIC50 was 6.00 in assay [1] (Homo sapiens, […]) and 6.00 in assay [4] (Homo sapiens, […]). For the same compound, the “Ther Window” value in assay [1] was 1.00. Also, the negative-log Ki (pKi) in assay [2] was 6.97; in assay [3] it was 7.57.

Take `Cc1nc2c(F)cc(-c3nc(Nc4ccc(CN5CCO[C@](C)(CC(=O)N6CC(F)(F)C6)C5)cn4)ncc3F)cc2n1C(C)C` [Compound A56, (R)-1-(3,3-difluoroazetidin-1-yl)-2-(4-((6-((5-fluoro-4-(4-fluoro-1-isopropyl-2-methyl-1H-benzo[d]imidazol-6-yl)pyrimidin-2-yl)amino)pyridin-3-yl)methyl)-2-methylmorpholin-2-yl)ethan-1-one]: the pIC50 in assay [1] (Homo sapiens, […]) is 6.59; in assay [4] (Homo sapiens, […]), 6.00. Besides, the “Ther Window” value in assay [1] is given as 3.76. The negative-log Ki (pKi) in assay [2] is 7.83; in assay [3] it was 8.62.

Turning to `CCN(CC)C(=O)C[C@]1(C)CN(Cc2ccc(Nc3ncc(F)c(-c4cc(F)c5nc(C)n(C(C)C)c5c4)n3)nc2)CCO1` [Compound A57, (R)-2-(4-((6-((5-fluoro-4-(4-fluoro-1-isopropyl-2-methyl-1H-benzo[d]imidazol-6-yl)pyrimidin-2-yl)amino)pyridin-3-yl)methyl)-2-methylmorpholin-2-yl)-N,N-diethylacetamide], the pIC50 in assay [1] (Homo sapiens, […]) was 6.41; in assay [4] (Homo sapiens, […]), 6.00. Besides, in assay [1], the “Ther Window” value came out at 2.56. Further, the figures for the negative-log Ki (pKi) in assay [2] and in assay [3] were 7.62 and 8.41, respectively.

Consider `Cc1nc2c(F)cc(-c3nc(Nc4ccc(CN5CCO[C@](C)(CC(=O)N6CCC6)C5)cn4)ncc3F)cc2n1C(C)C` [Compound A58, (R)-1-(azetidin-1-yl)-2-(4-((6-((5-fluoro-4-(4-fluoro-1-isopropyl-2-methyl-1H-benzo[d]imidazol-6-yl)pyrimidin-2-yl)amino)pyridin-3-yl)methyl)-2-methylmorpholin-2-yl)ethan-1-one], for which the pIC50 was 6.47 in assay [1] (Homo sapiens, […]) and 6.00 in assay [4] (Homo sapiens, […]). The “Ther Window” value in assay [1] stood at 2.94. For the same compound, the pKi is 7.70 in assay [2] and 8.58 in assay [3].
